In US11753446B2, “Beta-hairpin peptidomimetics” (POLYPHOR AG, priority 2014, dated 2023):
Read-outs that look alike come from different tables or passages of the source. Where a SMILES comes first, the peptide text is derived from it. Bridges are numbered along the chain shown (N, C = ends). [ ]: non-standard residue; d: D form. Tle = CC(C)(C)[C@H](N)C(=O)O; dDab = NCC[C@@H](N)C(=O)O; Orn = NCCC[C@H](N)C(=O)O; Dab = NCC[C@H](N)C(=O)O

Experiments:
[1] = system: human red blood cells (hRBC); experiment: Hemolysis: hemolytic activity at 100 μg/mL, 1 h at 37° C.
Experimental: Lyophilized peptides were weighed on a Microbalance (Mettler MT5) and dissolved in sterile water to a final concentration of 1 mg/mL. Stock solutions were kept at +4° C., light protected.
The peptides were tested for their hemolytic activity against human red blood cells (hRBC). Fresh hRBC were washed three times with phosphate buffered saline (PBS) and centrifuged for 5 min at 3000×g. Compounds (100 μg/mL) were incubated with 20% hRBC (v/v) for 1 h at 37° C. and shaking at 300 rpm. The final erythrocyte concentration was approximately 0.9×10^9 cells/mL. A value of 0% and 100% cell lyses, respectively, was determined by incubation of hRBC in the presence of PBS containing 0.001% acetic acid and 2.5% Triton X-100 in H2O, respectively. The samples were centrifuged, the supernatants were 8-fold diluted in PBS buffer and the optical densities (OD) were measured at 540 nm.
Percent hemolysis was calculated as follows: (OD540peptide/OD540H2O)×100%.

[2] = system: Escherichia coli ATCC 25922; format: cell-based
Experimental: (§1) Stock solutions were kept at +4° C., light protected.
(§2) The selective antimicrobial activities of the peptides were determined in 96-well plates (Greiner, polystyrene) by the standard NCCLS broth microdilution method (National Committee for Clinical Laboratory Standards 1993. Methods for dilution antimicrobial susceptibility tests for bacteria that grow aerobically, 3rd ed. Approved standard M7-A6; National Committee for Clinical laboratory standards, Wayne, Pa.) with slight modifications. Inocula of the microorganisms were diluted into Mueller-Hinton II (MH, cation adjusted) broth and compared with a 0.5 McFarland standard to give appr. 10^6 colony forming units (CFU)/mL. Aliquots (90 μl) of inoculate were added to 10 μl of MH broth+P-80 (Polysorbate 80, 0.002% final concentration) containing the peptide in serial two-fold dilutions. The following microorganisms were used to determine antibiotic selectivity of the peptides: Escherichia coli ATCC 25922, Klebsiella pneumoniae ATCC 13883 and Acinetobacter baumannii DSM 30008.

[3] = system: Acinetobacter baumannii DSM 30008; format: cell-based
Experimental: as §1, §2

[4] = system: Klebsiella pneumoniae ATCC 13883; format: cell-based
Experimental: as §1, §2

[5] = Mueller-Hinton II broth, 18-20 hours at 35° C.

SMILES	Hemolysis at 100 μg/mL ([1]; red cells of human, 1 h, 100)	Escherichia coli ATCC 25922 MIC ([2]; ATCC 25922)	Acinetobacter baumannii DSM 30008 MIC ([3]; DSM 30008)	Klebsiella pneumoniae ATCC 13883 MIC ([4]; ATCC 13883)	Hemolysis at 100 μg/mL ([1]; 100 μg/mL, 20% hRBC, 1 h at 37° C.)	Escherichia coli ATCC 25922 MIC [2, 5]	Acinetobacter baumannii DSM 30008 MIC [3, 5]	Klebsiella pneumoniae ATCC 13883 MIC [4, 5]	Hemolysis at 100 μg/mL ([1]; red cells of human, 1 h, 100 μg/mL)
CC(C)C[C@@H]1NC(=O)[C@H](CCN)NC(=O)[C@@H](CCN)NC(=O)[C@H]([C@@H](C)O)NC(=O)[C@@H]2CCNC(=O)C[C@H](NC1=O)C(=O)N[C@@H](Cc1ccc(O)cc1)C(=O)N[C@@H](CC(N)=O)C(=O)N[C@@H](CCCN)C(=O)N[C@H](CCN)C(=O)N[C@@H](CCN)C(=O)N[C@@H](Cc1c[nH]c3ccccc13)C(=O)N[C@@H](CO)C(=O)N[C@@H](C(C)(C)C)C(=O)N2 [Example 76, cyclo(-Leu-Asp-Tyr-Asn-Orn-^DDab-Dab-Trp-Ser-tBuGly-Dab-Thr-^DDab-Dab-)] (cyclo(LDYN[Orn][dDab][Dab]WS[Tle][Dab]T[dDab][Dab]); lactam 2-11)	2%	1 µg/mL	1.5 µg/mL	1 µg/mL					
CC[C@H](C)[C@@H]1NC(=O)[C@H](C)NC(=O)[C@@H](CCN)NC(=O)[C@H](CO)NC(=O)[C@@H]2CSSC[C@H](NC1=O)C(=O)N[C@@H](Cc1ccc(O)cc1)C(=O)N[C@@H](CCN)C(=O)N[C@@H](CCCN)C(=O)N[C@H](CCN)C(=O)N[C@@H](CCN)C(=O)N[C@@H](Cc1c[nH]c3ccccc13)C(=O)N[C@@H](CCN)C(=O)N[C@@H](C(C)(C)C)C(=O)N2 [Example 13, cyclo(-Ile-Cys-Tyr-Dab-Orn-^DDab-Dab-Trp-Dab-tBuGly-Cys-Ser-^DDab-Ala-)] (cyclo(AICY[Dab][Orn][dDab][Dab]W[Dab][Tle]CS[dDab]); disulfide 3-12)	1%	0.5 µg/mL	2 µg/mL	8 µg/mL					
CC(C)C[C@@H]1NC(=O)[C@H](CCCNC(=N)N)NC(=O)[C@@H](CCN)NC(=O)[C@H](Cc2ccc(O)cc2)NC(=O)[C@@H]2CSSC[C@H](NC1=O)C(=O)N[C@@H](Cc1ccc(O)cc1)C(=O)N[C@@H](C)C(=O)N[C@@H](CCCN)C(=O)N[C@H](CCN)C(=O)N[C@@H](CCN)C(=O)N[C@@H](Cc1c[nH]c3ccccc13)C(=O)N[C@@H](C)C(=O)N[C@@H](Cc1ccc(O)cc1)C(=O)N2 [Example 17, cyclo(-Leu-Cys-Tyr-Ala-Orn-^DDab-Dab-Trp-Ala-Tyr-Cys-Tyr-^DDab-Arg-)] (HELM PEPTIDE1{A.[Orn].[NCC[C@@H](N[*:1])C(=O)[*:2]].[Dab].W.A.Y.C.Y.[NCC[C@@H](N[*:1])C(=O)[*:2]].R.L.C.Y}$PEPTIDE1,PEPTIDE1,8:R3-13:R3|PEPTIDE1,PEPTIDE1,1:R1-14:R2$$$V2.0)	4%	0.5 µg/mL	0.5 µg/mL	1 µg/mL					
CC(C)C[C@@H]1NC(=O)[C@H](CCN)NC(=O)[C@@H](CCN)NC(=O)[C@H](CCCN)NC(=O)[C@H](CC(N)=O)NC(=O)[C@H](Cc2ccc(O)cc2)NC(=O)[C@@H]2CSSC[C@H](NC(=O)[C@H](C(C)(C)C)NC(=O)[C@H](CO)NC1=O)C(=O)N[C@@H](C(C)C)C(=O)N[C@H](CCN)C(=O)N[C@@H](CCCNC(=N)N)C(=O)N[C@@H](CC(C)C)C(=O)N2 [Example 4, cyclo(-Leu-Cys-Tyr-Asn-Orn-^DDab-Dab-Leu-Ser-tBuGly-Cys-Val-^DDab-Arg-)] (cyclo(CV[dDab]RLCYN[Orn][dDab][Dab]LS[Tle]); disulfide 1-6)	4%	0.75 µg/mL	0.25 µg/mL	0.5 µg/mL					
CC(C)C[C@@H]1NC(=O)[C@H](CCN)NC(=O)[C@@H](CCN)NC(=O)[C@H]([C@@H](C)O)NC(=O)[C@@H]2CSSC[C@H](NC1=O)C(=O)N[C@@H](Cc1ccc(O)cc1)C(=O)N[C@@H](CC(N)=O)C(=O)N[C@@H](CCCN)C(=O)N[C@H](CCN)C(=O)N[C@@H](CCN)C(=O)N[C@@H](Cc1c[nH]c3ccccc13)C(=O)N[C@@H](CO)C(=O)N[C@@H](C(C)(C)C)C(=O)N2 [Example 6, cyclo(-Leu-Cys-Tyr-Asn-Orn-^DDab-Dab-Trp-Ser-tBuGly-Cys-Thr-^DDab-Dab-)] (cyclo(CT[dDab][Dab]LCYN[Orn][dDab][Dab]WS[Tle]); disulfide 1-6)					5%	0.5 µg/mL	0.5 µg/mL	0.5 µg/mL	
CC(C)C[C@@H]1NC(=O)[C@H](CCCNC(=N)N)NC(=O)[C@@H](CCN)NC(=O)[C@H](C(C)C)NC(=O)[C@@H]2CSSC[C@H](NC1=O)C(=O)N[C@@H](Cc1ccc(O)cc1)C(=O)N[C@@H](C)C(=O)N[C@@H](CCCN)C(=O)N[C@H](CCN)C(=O)N[C@@H](CCN)C(=O)N[C@@H](Cc1c[nH]c3ccccc13)C(=O)N[C@@H](C)C(=O)N[C@@H](Cc1ccc(O)cc1)C(=O)N2 [Example 23, cyclo(-Leu-Cys-Tyr-Ala-Orn-^DDab-Dab-Trp-Ala-Tyr-Cys-Val-^DDab-Arg-)] (HELM PEPTIDE1{A.[Orn].[NCC[C@@H](N[*:1])C(=O)[*:2]].[Dab].W.A.Y.C.V.[NCC[C@@H](N[*:1])C(=O)[*:2]].R.L.C.Y}$PEPTIDE1,PEPTIDE1,8:R3-13:R3|PEPTIDE1,PEPTIDE1,1:R1-14:R2$$$V2.0)	1%	2 µg/mL	0.75 µg/mL	1 µg/mL					
CC[C@H](C)[C@@H]1NC(=O)[C@H](Cc2ccc(O)cc2)NC(=O)[C@@H](C)NC(=O)[C@H](CO)NC(=O)[C@@H]2CSSC[C@H](NC1=O)C(=O)N[C@@H](Cc1ccc(O)cc1)C(=O)N[C@@H](CCN)C(=O)N[C@@H](CCCN)C(=O)N[C@H](CCN)C(=O)N[C@@H](CCN)C(=O)N[C@@H](Cc1c[nH]c3ccccc13)C(=O)N[C@@H](CCN)C(=O)N[C@@H](C(C)(C)C)C(=O)N2 [Example 16, cyclo(-Ile-Cys-Tyr-Dab-Orn-^DDab-Dab-Trp-Dab-tBuGly-Cys-Ser-^DAla-Tyr-)] (HELM PEPTIDE1{C.S.[dA].Y.I.C.Y.[Dab].[Orn].[NCC[C@@H](N[*:1])C(=O)[*:2]].[Dab].W.[Dab].[CC(C)(C)[C@H](N[*:1])C(=O)[*:2]]}$PEPTIDE1,PEPTIDE1,1:R3-6:R3|PEPTIDE1,PEPTIDE1,1:R1-14:R2$$$V2.0)	1%	0.5 µg/mL	1 µg/mL	0.5 µg/mL					
CC(C)C[C@@H]1NC(=O)[C@H](CCCNC(=N)N)NC(=O)[C@H]2CCCN2C(=O)[C@H](C(C)C)NC(=O)[C@@H]2CSSC[C@H](NC1=O)C(=O)N[C@@H](Cc1ccc(O)cc1)C(=O)N[C@H]1CSSC[C@H](NC(=O)[C@H](Cc3c[nH]c4ccccc34)NC(=O)[C@H](CCN)NC(=O)[C@H](CCN)NC(=O)[C@H](CCN)NC1=O)C(=O)N[C@@H](Cc1ccc(O)cc1)C(=O)N2 [Example 42, cyclo(-Leu-Cys-Tyr-Cys-Dab-Dab-Dab-Trp-Cys-Tyr-Cys-Val-^DPro-Arg-)] (HELM PEPTIDE1{C.[Dab].[Dab].[Dab].W.C.Y.C.V.[dP].R.L.C.Y}$PEPTIDE1,PEPTIDE1,1:R3-6:R3|PEPTIDE1,PEPTIDE1,8:R3-13:R3|PEPTIDE1,PEPTIDE1,1:R1-14:R2$$$V2.0)		4 µg/mL	1 µg/mL	2 µg/mL					3%
CC(C)C[C@@H]1NC(=O)[C@H](CCCNC(=N)N)NC(=O)[C@@H](CCCNC(=N)N)NC(=O)[C@H](C(C)C)NC(=O)[C@@H]2CSSC[C@H](NC1=O)C(=O)N[C@@H](Cc1ccc(O)cc1)C(=O)N[C@@H](CC(N)=O)C(=O)N[C@@H](CCCN)C(=O)N[C@H](CCN)C(=O)N[C@@H](CCN)C(=O)N[C@@H](Cc1c[nH]c3ccccc13)C(=O)N[C@@H](CO)C(=O)N[C@@H](Cc1ccc(O)cc1)C(=O)N2 [Example 66, cyclo(-Leu-Cys-Tyr-Asn-Orn-^DDab-Dab-Trp-Ser-Tyr-Cys-Val-^DArg-Arg-)] (HELM PEPTIDE1{C.V.[dR].R.L.C.Y.N.[Orn].[NCC[C@@H](N[*:1])C(=O)[*:2]].[Dab].W.S.Y}$PEPTIDE1,PEPTIDE1,1:R3-6:R3|PEPTIDE1,PEPTIDE1,1:R1-14:R2$$$V2.0)	2%	1 µg/mL	1.25 µg/mL	0.5 µg/mL					
